According to publication PMC3412067 (Journal of medicinal chemistry, 2012):
“Also recorded” adds a separate entry of the source. Read-outs that look alike come from different tables or passages of the source. Marks after values point to notes of the source that are not given here.

Tests used:
CD-1 mice [1] = experiment: Radiant heat tail flick analgesia assay; format: in vivo, mouse; conditions: for analgesic activity (in words): tail flick, doses as high as 10 mg/kg
mice [2] = conditions: cited from earlier work
[3] = cited from earlier work
mice [4] = conditions: cited from earlier work; remark: listed apart in the source
CD-1 mice [5] = conditions: cited from earlier work
mice [6] = conditions: cited from earlier work; remark: listed apart in the source
knockout mouse = conditions: cited from earlier work
KOR-1 (kappa) = KOR-1 (kappa) (Mus musculus, UniProt P33534); experiment: Competition binding against 125I-BNtxA in CHO cells stably expressing KOR-1
MOR-1 (mu) = MOR-1 (mu) (Mus musculus, UniProt P42866); experiment: Competition binding against 125I-BNtxA in CHO cells stably expressing MOR-1
mice [7] = experiment: Respiratory depression assay; format: in vivo, mouse; conditions: 15 2.5 mg/kg s.c., morphine 20 mg/kg s.c., about 4-fold analgesic ED50; n=5
DOR-1 (delta) = DOR-1 (delta) (Mus musculus, UniProt P32300); experiment: Competition binding against 125I-BNtxA in CHO cells stably expressing DOR-1; conditions: for fold lower affinity for delta receptors: compared to 15
6TM/E11 sites = 6TM/E11 sites (Mus musculus, UniProt P42866); format: binding; conditions: compared to 15

Question: Which “Tail flick analgesia ED50 mg/kg (95%CL)” value (CD-1 mice [1]; s.c., CD-1 mice, radiant heat tail flick, (95% confidence limits)) does the source give for “17-Allyl-3,14β-dihydroxy-4,5α-epoxy-6β-[2-adamantylamido]morphinan [Compound 37]” here?
Answer: >10 mg/kg

Question: Which results are given for O=C(N[C@@H]1CC[C@@]2(O)[C@H]3Cc4ccc(O)c5c4[C@@]2(CCN3CC2CC2)[C@H]1O5)c1cccc(I)c1 [Compound 1, 3-Iodobenzoylnaltrexamide]?
Answer: inhibition of gastrointestinal transit (in words) (mice [2]): limited inhibition of gastrointestinal transit; rewarding behavior in the conditioned place preference assay (in words) [3]: no observable; physical dependence (in words) (mice [4]): no observable; Tail flick analgesia ED50 mg/kg (95%CL) (CD-1 mice [5]; (95% confidence limits), values from the literature ref 26): 0.39 (0.15, 0.58) ^a mg/kg; cross tolerance to morphine (in words) (CD-1 mice [5]): no observable; analgesic potency fold greater than morphine (CD-1 mice [5]; compared to morphine ref 26): 10 fold; respiratory depression (in words) (mice [6]): no observable respiratory depression; analgesic activity in E11 knockout mouse (in words) (knockout mouse; E11 knockout mouse, disruption of exon 11-associated variants ref 26): without activity; analgesic activity in MOR-1/DOR-1/KOR-1 triple knockout mouse (in words) (knockout mouse; triple knockout mouse lacking traditional mu, delta and kappa1 receptors ref 26): retained full analgesic activity

Question: With CN1CC[C@]23c4c5ccc(O)c4O[C@H]2[C@H](NC(=O)c2cccc(I)c2)CC[C@@]3(O)[C@H]1C5 [Compound 14] as the compound, how does the “analgesic activity (in words)” value (CD-1 mice [1]; s.c.) read?
Answer: No analgesia could be detected

Question: With C=CCN1CC[C@]23c4c5ccc(O)c4O[C@H]2[C@H](NC(=O)c2cccc(I)c2)CC[C@@]3(O)[C@H]1C5 [Compound 15, 17-Allyl-3,14β-dihydroxy-4,5α-epoxy-6β-[(3′-iodo)benzamido]morphinan] as the compound, how does the “fold lower affinity for kappa receptors” value (KOR-1 (kappa); compared to 1) read?
Answer: about 2 fold

Question: What about the “fold more potent an analgesic than morphine” value (CD-1 mice [1]; compared to morphine) of the same compound?
Answer: 10 fold

Question: And the “fold lower affinity for mu receptors” value (MOR-1 (mu); compared to 1)?
Answer: about 2 fold

Question: And the “effect on respiratory rate (in words)” value (mice [7])?
Answer: did not depress respiratory rate; also recorded: no respiratory depression

Question: With C=CCN1CC[C@]23c4c5ccc(O)c4O[C@H]2[C@@H](NC(=O)c2cccc(I)c2)CC[C@@]3(O)[C@H]1C5 [Compound 16, 17-Allyl-3,14β-dihydroxy-4,5α-epoxy-6α-[(3′-iodo)benzamido]morphinan] as the compound, how does the “fold lower affinity for kappa receptors” value (KOR-1 (kappa); compared to 15) read?
Answer: 150 fold

Question: And the “fold lower affinity for delta receptors” value (DOR-1 (delta))?
Answer: 3 fold

Question: And the “fold higher ED50 / lower analgesic activity” value (CD-1 mice [1]; compared to 15)?
Answer: 10 fold

Question: What about the “fold lower affinity for mu receptors” value (MOR-1 (mu); compared to 15) of the same compound?
Answer: 23 fold

Question: And the “fold lower binding affinity for the 6TM/E11 site” value (“fold lower binding affinity” below) (6TM/E11 sites)?
Answer: 33 fold

Question: With C=CCN1CC[C@]23c4c5ccc(O)c4O[C@H]2[C@H](NC(=O)c2ccccc2I)CC[C@@]3(O)[C@H]1C5 [Compound 17, 17-Allyl-3,14β-dihydroxy-4,5α-epoxy-6β-[(2′-iodo)benzamido]morphinan] as the compound, how does the “fold lower affinity for kappa receptors” value (KOR-1 (kappa); compared to 15) read?
Answer: approximately 10 fold

Question: What about the “fold lower affinity for delta receptors” value (DOR-1 (delta)) of the same compound?
Answer: approximately 10 fold

Question: What about the “analgesic activity (in words)” value (CD-1 mice [1]; s.c.) of the same compound?
Answer: eliminated its analgesic activity

Question: And the “fold lower affinity for mu receptors” value (MOR-1 (mu); compared to 15)?
Answer: approximately 10 fold

Question: What about the “fold lower binding affinity” value (6TM/E11 sites) of the same compound?
Answer: 100 fold

Question: With C=CCN1CC[C@]23c4c5ccc(O)c4O[C@H]2[C@H](NC(=O)c2ccccc2)CC[C@@]3(O)[C@H]1C5 [Compound 22, 17-Allyl-3,14β-dihydroxy-4,5α-epoxy-6β-(benzamido)morphinan] as the compound, how does the “fold lower affinity for kappa receptors” value (KOR-1 (kappa); compared to 15) read?
Answer: ~180 fold

Question: What about the “fold lower affinity for delta receptors” value (DOR-1 (delta)) of the same compound?
Answer: ~25 fold

Question: And the “fold lower affinity for mu receptors” value (MOR-1 (mu); compared to 15)?
Answer: about 20 fold

Question: What about the “fold lower binding affinity” value (6TM/E11 sites) of the same compound?
Answer: over 20 fold

Question: With C=CCN1CC[C@]23c4c5ccc(O)c4O[C@H]2[C@H](NC(=O)c2cccc(C(F)(F)F)c2)CC[C@@]3(O)[C@H]1C5 [Compound 24, 17-Allyl-3,14β-dihydroxy-4,5α-epoxy-6β-[(3′-trifluoromethyl)benzamido]morphinan] as the compound, how does the “analgesic activity (in words)” value (CD-1 mice [1]; s.c.) read?
Answer: potent analgesic actions

Question: Which “fold greater analgesic potency” value (CD-1 mice [1]; compared to 15) does the source give for C=CCN1CC[C@]23c4c5ccc(O)c4O[C@H]2[C@H](NC(=O)c2cccc(OC)c2)CC[C@@]3(O)[C@H]1C5 [Compound 25, 17-Allyl-3,14β-dihydroxy-4,5α-epoxy-6β-[(3′-methoxy)benzamido]morphinan] here?
Answer: over 3 fold

Question: And the “analgesic activity (in words)” value (CD-1 mice [1]; s.c.)?
Answer: potent analgesic actions

Question: And the “fold mu selectivity over delta” value (MOR-1 (mu); mu vs delta)?
Answer: 100 fold

Question: And the “fold lower binding affinity” value (6TM/E11 sites)?
Answer: 10 fold

Question: For C=CCN1CC[C@]23c4c5ccc(O)c4O[C@H]2[C@H](NC(=O)c2ccc(-c4ccccc4)cc2)CC[C@@]3(O)[C@H]1C5 [Compound 32, 17-Allyl-3,14β-dihydroxy-4,5α-epoxy-6β-[(4′-phenyl)benzamido]morphinan], which “analgesic activity (in words)” value (CD-1 mice [1]; s.c.) is on record?
Answer: not analgesic

Question: For C=CCN1CC[C@]23c4c5ccc(O)c4O[C@H]2[C@H](NC(=O)CCCCC)CC[C@@]3(O)[C@H]1C5 [Compound 34, 17-Allyl-3,14β-dihydroxy-4,5α-epoxy-6β-(hexylamido)morphinan], which Ki (KOR-1 (kappa)) is on record?
Answer: 9.15 ± 0.94 nM

Question: What does the source list for O=C(NC1CCC2(O)C3Cc4ccc(O)c5c4C2(CCN3CC2CC2)C1O5)c1cccc(I)c1 (stereo not shown) [Compound 125IBNtxA, reference compound]?
Answer: Kd (KOR-1 (kappa); read-out: 125IBNtxA KD KOR-1, radioligand KD): 0.03 nM; Kd (DOR-1 (delta); read-out: 125IBNtxA KD DOR-1, radioligand KD): 0.24 nM; Kd (MOR-1 (mu); read-out: 125IBNtxA KD MOR-1, radioligand KD): 0.11 nM

Question: With CN1CC[C@]23c4c5ccc(O)c4O[C@H]2[C@@H](O)C=C[C@H]3[C@H]1C5 [morphine, reference compound] as the compound, how does the “effect on respiratory rate (in words)” value (mice [7]) read?
Answer: decreases respiratory depression
